Results on one compound are retold here after patent US9481915B2, “Method of screening drugs that promote LOXL1 expression” (SHANGHAI TENTH PEOPLE'S HOSPITAL, priority 2012, dated 2016).

Format in all cases: cell-based
Assay [1] relates to extracellular matrix crosslinking in human fibroblasts. The assay can be described thus: ELISA of desmosine and hydroxylproline (elastin and collagen crosslinking) in human fibroblast lines HF1 and HF2. The settings on record: different emodin concentrations. On the procedure: Two human fibroblast cell lines integrating PLOXL1-ZsGreen components (HF1 and HF2) are inoculated at a density of 20%, incubated overnight (37° C., 5% CO2). Then, emodin is added into the culture medium. Detect the desmosine by ELISA method to determine the effects of different emodin concentrations to elastin crosslinking. This example determines the effects of different emodin concentrations to collagen crosslinking by detecting the contents of hydroxylproline through ELISA method. […] Thus, emodin promotes the crosslinking of extracellular matrix protein in human fibroblasts widely.
For orientation: ELISA stands for enzyme-linked immunosorbent assay.

Assay [2] deals with LOXL1 in human skin tissue. The assay can be described thus: Real-time and western blot of LOXL1 and elastin monomer/dimer in cultured human skin tissue. On the procedure: Emodin was added into the culture medium of human skin tissue. Detect the LOXL1 level in human skin tissue and elastin crosslinking level during 1˜3 days after emodin treatment. Detect the mRNA level and protein level of LOXL1 using Real-time and western blot methods, as well as detecting the amount of monomer and dimer of elastin. Wherein, the control with DMSO solvent added only is normalized to 1, data are calculated as Mean±SEM of three independent test values. *p<0.01, ***P<0.0001.
In general terms: Immunoblotting shows a protein as a band on a membrane.

A further assay has as its system LOXL1. The assay can be described thus: Real-time and western blot of LOXL1 mRNA/protein and elastin dimer in human fibroblast lines HF1 and HF2. To be noted: for expression of LOXL1 (mRNA and protein): 4 μM emodin, overnight; for formation of elastin dimer intermediate: different emodin concentrations. The procedure:
Two human fibroblast cell lines integrating PLOXL1-ZsGreen components (HF1 and HF2) are inoculated at a density of 20%, incubated overnight (37° C., 5% CO2). […] After cultured overnight, Real-time and western blot are used to detect the mRNA level and protein level in LOXL1. Wherein, the one added DMSO solvent only works as the control, and is normalized to 1, data are calculated as Mean±SEM of three independent test values, *P<0.05; **P<0.001; ***P<0.0001. […] In these two cell lines, the expression of LOXL1 is not only linearly correlated to transcriptional level, but to LOXL1 protein level, and accomplishing elastin dimer intermediates formation.

Another assay has as its system human LOXL1 promoter. The assay can be described thus: PLOXL1-ZsGreen reporter: green fluorescence intensity of human fibroblasts. On the procedure: S3. Drug screening: Inoculate the said human fibroblasts integrating PLOXL1-ZsGreen component into culture medium, incubate overnight. Dissolve the analyte into DMSO as 0.2-2 mg/ml, and dilute into 1:200, then add it into the cell culture medium, and its final concentration will be […]. After incubating overnight (37° C., 5% CO2), detect the green fluorescence intensity of these cells. The screening method of present invention decides if the analyte added stimulates the activity of human LOXL1 promoter effectively, and increases the expression of LOXL1, thus promotes the crosslinking of extracellular matrix protein, by checking if the green fluorescence intensity is increased.
Inoculate the said human fibroblasts integrating PLOXL1-ZsGreen component into culture medium with a density of 20%, keep adherent overnight. […] After culturing overnight (37° C., 5% CO2), detect the green fluorescence intensity of these cells. The present invention decides if the Chinese herbal extracts added stimulate the activity of human LOXL1 promoter effectively by checking if the green fluorescence intensity is increased. […]
Inoculate the said stably expressing human fibroblast strain integrating a expression cassette of PLOXL1-ZsGreen with a 20% density into media, keep adherent overnight (37° C., 5% CO2), detect the green fluorescence intensity of these cells. […]

In the case of `Cc1cc(O)c2c(c1)C(=O)c1cc(O)cc(O)c1C2=O` [emodin], the “desmosine intermediates (elastin crosslinking)” value was “increase with the increasing concentrations of emodin added” in assay [1] (HF1, FIG. 6a1) and “increase with the increasing concentrations of emodin added” in assay [1] (HF2, FIG. 6b1). The “hydroxylproline intermediate (collagen crosslinking)” value in assay [1] (HF1, FIG. 6a2) was “also increases with the increasing concentrations of emodin added”; in assay [1] (HF2, FIG. 6b2), “also increases with the increasing concentrations of emodin added”. In addition, in assay [2] (4 μM emodin, FIG. 7b), the LOXL1 protein level entry is given as “significantly promotes the LOXL1 protein level”. The elastin intermediate dimers entry in assay [2] (4 μM emodin, FIG. 7c) is “increase of intermediate dimers”. Also, in assay [2] (4 μM emodin, FIG. 7c), the elastin monomers entry is given as “decrease of elastin monomers”. Further, the “LOXL1 mRNA level” value in assay [2] (different emodin concentrations, 1-3 days, FIG. 7a) is given as “increases as the emodin concentration increases”. Besides, the “expression of LOXL1 (mRNA and protein)” value is listed as “significantly promotes the expression of LOXL1” in the assay on LOXL1 (HF1 cell line, FIGS. 5a1-5a2) and “significantly promotes the expression of LOXL1” in the assay on LOXL1 (HF2 cell line, FIGS. 5b1-5b2). The “formation of elastin dimer intermediate” value with LOXL1 (HF1 cell line, FIG. 5a3) is “promotion of different emodin concentration to the expression of LOXL1 and the formation of elastin dimer intermediate”; in the assay with LOXL1 (HF2 cell line, FIG. 5b3), “promotion of different emodin concentration to the expression of LOXL1 and the formation of elastin dimer intermediate”. Besides, the “activity of human LOXL1 promoter (ZsGreen fluorescent intensity)” value in the assay on human LOXL1 promoter (Example 4, FIG. 4a, 4 μM emodin) is on record as “obvious promotion to the activity of human LOXL1 promoter”. In addition, in the assay on human LOXL1 promoter (Example 4, FIG. 4c, DMSO control normalized to 1), the “fluorescent intensity of ZsGreen vs emodin concentration” value is “increases with the concentration of emodin, with a significant linear relationship”.
